Measured values reported in patent US12098136B2, “Crystalline forms of lenalidomide” (BIOCON LIMITED, priority 2017, dated 2024).

Assays:
Mouse = conditions: in vivo; cited from earlier work
[1] = Hygroscopicity / weight change; type: physicochemical
Thermal stability (neat) = type: physicochemical

| Hygroscopicity ([1]; compared with Lenalidomide hemihydrate) | thermally stable up to (temperature) (Thermal stability (neat)) [°C] | Compound | Acute oral toxicity (LD50) (Mouse) [mg/kg] | weight change [1] |
| --- | --- | --- | --- | --- |
|  |  | O=C1NS(=O)(=O)c2ccccc21 [Saccharin] | 17000 |  |
| lesser or comparable | ≥ 80 | Nc1cccc2c1CN(C1CCC(=O)NC1=O)C2=O (stereo not shown) [Lenalidomide-Resorcinol co-crystal] |  | does not exhibit significant weight change |
